We go through five substances from patent publication US7223733B2, “Modulation of TRIP-Br function and method of treating proliferative disorders” (National University of Singapore, priority 2004, dated 2007).

Where no end group is shown, it is not given here. [invdT] = inverted (3'-3') thymidine

Format in all cases: cell-based, human
For one series, the system named is U2OS cells. As to the kind of experiment: BrdU incorporation colorimetric ELISA in U2OS cells. The note with it: for DNA synthesis activity (BrdU incorporation): U2OS, 50 μM, between 24 h and 48 h post-treatment; for ability to incorporate BrdU with increasing concentrations: U2OS, 5, 10, 20 or 50 μM, 48 h. The protocol:
BrdU assay. U2OS cells grown in 96-well plates were exposed to either vehicle or decoy peptides. Bromodeoxyuridine (BrdU) incorporation was monitored with a colorimetric ELISA assay using a cell proliferation kit according to manufacturer's recommendations (Boehringer Mannheim).
FIG. 4: Time-dependent and dose-dependent anti-proliferative effects of the decoy peptides. (A) Time-dependent anti-proliferative effects of the decoy peptides. U2OS cells, exposed to either vehicle (0.5% DMSO) or 50 μM decoy peptides for either 24 or 48 h, were assayed for BrdU incorporation with a colorimetric ELISA assay. Values represent the average +/− standard deviation of two independent experiments; (B) Dose-dependent anti-proliferative effects of the decoy peptides. U2OS cells, exposed to 5, 10, 20 or 50 μM of *SCR (solid line and square), *Br1 (dashed line and triangle) or *Br2 (dashed line and circle) for 48 h, were assayed for BrdU incorporation with a colorimetric ELISA assay. Values represent the average +/− standard deviation of at least two independent experiments; (C) Cell proliferation analysis. Left panel: At 0, 48 and 72 h post decoy peptide treatment, total cell number was determined electronically using a Coulter® counter. Right panel: At 72 h post-treatment, cells were harvested and stained with trypan blue for viable cell count analysis.
Background: Dividing cells build labelled thymidine or BrdU into new DNA.

The test system of the next series is cyclins A, D and E. As to the kind of experiment: Western blot of cyclins A, D and E in U2OS cells exposed to decoy peptides. The settings on record: U2OS, 5, 10 or 20 μM, 48 h. The protocol:
Denaturing SDS-PAGE and western blotting. Proteins from whole cell lysate and IP complexes were separated using standard denaturing polyacrylamide gel electrophoresis as described previously (Hsu, S. I. H., et al. EMBO J 20, 2273-2285 (2001)).
FIG. 8: The role(s) of the TRIP-Br integrator function in cyclin E regulation. (A) Western blot analysis of the expression of cyclins A, D and E in whole cell extracts derived from U2OS cells exposed to 5, 10 or 20 μM of decoy peptides for 48 h. Cdk2 served as a loading control; (B) Dosage-dependent effects of decoy peptides on Fbxw7 expression. U2OS cells exposed to 5, 10 or 20 μM of decoy peptides were analyzed for Fbxw7 mRNA transcript levels by semi-quantitative RT-PCR. H-actin was co-amplified as an internal control; (C) cyclin-E and Fbxw7 expression was analyzed by semi-quantitative RT-PCR using total RNA from sub-confluent U2OS ER-E2F-1 cells grown with or without OHT and/or cycloheximide (CHX) for 2 h as indicated. H-actin was included as an internal control.
In general terms: In western blotting, separated proteins are transferred to a membrane and probed.

Another series has as its system Fbxw7 mRNA. As to the kind of experiment: Semi-quantitative RT-PCR of Fbxw7 in U2OS cells. The settings on record: U2OS, 5, 10 or 20 μM. The protocol: Semi-quantitative RT-PCR. Total RNA was isolated from U2OS cells or U2OS-ER-E2F-1 cells (grown with or without 1.0 μM OHT and/or 10 μg/ml cycloheximide) using the TRIZOL® Reagent (Life Technologies). Total RNA (4 μg) was reverse transcribed using oligo-dT and M-MLV reverse transcriptase in a total reaction volume of 20 μl. Polymerase Chain Reactions (PCR) were carried out on 3 μl cDNA samples in the presence of […] deoxyribonucleotide triphosphates (dNTPs) and 40 μM of specific primer pairs in a total reaction volume of 50 μ. The cycling profile for PCR was as follow: 30 cycles of denaturation (94° C., 30 sec), annealing (51° C., 30 sec) and extension (72° C., 2 min), with a 2-minute initial denaturation step at 94° C. and a 10-minute terminal polishing step at 72° C. Sequences of gene-specific primers are available upon request. PCR amplification products were analyzed by agarose gel electrophoresis.
FIG. 8: The role(s) of the TRIP-Br integrator function in cyclin E regulation. […] U2OS cells exposed to 5, 10 or 20 μM of decoy peptides were analyzed for Fbxw7 mRNA transcript levels by semi-quantitative RT-PCR. H-actin was co-amplified as an internal control; (C) cyclin-E and Fbxw7 expression was analyzed by semi-quantitative RT-PCR using total RNA from sub-confluent U2OS ER-E2F-1 cells grown with or without OHT and/or cycloheximide (CHX) for 2 h as indicated. […]

Another series concerns CCNE gene. As to the kind of experiment: Semi-quantitative RT-PCR of CCNE in serum-stimulated WI-38 cells. The note with it: WI-38, serum stimulation. The procedure: Semi-quantitative RT-PCR. Following various treatments, WI-38 cells in 6-well culture dish were subjected to total RNA extraction using the TRIZOL® Reagent (Life Technologies). Total RNA (4 μg) was reversed transcribed using oligo-dT and M-MLV reverse transcriptase in a total reaction volume of 20 μl. Polymerase Chain Reactions (PCR) were carried out on 3 μl cDNA sample in the presence of […] deoxyribonucleotide triphosphates (dNTPs) and 40 μM of specific primer pairs in a total reaction volume of 50 μl. The cycling profile for PCR was as follow: 30 cycles of denaturation (94° C., 30 sec), annealing (51° C., 30 sec) and extension (72° C., 2 min), with a 2-minute initial denaturation step at 94° C. and a 10-minute polishing step at 72° C. at the end. Sequences of gene-specific primers are available upon request. Post-PCR samples were analyzed by agarose gel electrophoresis.
FIG. 14: (A) E-Br1 or E-Br2 attenuates mitogen-stimulated CCNE gene induction. Sub-confluent WI-38 cells were serum-starved for 72 h. Following DNA enzyme transfection, the cultures were re-stimulated with serum and allowed to proliferate. After 20 h, cells were harvested and total RNA extracted for semi-quantitative RT-PCR to assess CCNE expression. β-actin was included as an internal control. PCR products were resolved by agarose gel electrophoresis and ethidium bromide-stained DNA bands were visualized under UV. […]

Series [1] deals with cyclin E, Cdk4, cyclin D1 and p27^KIP1. As to the kind of experiment: Western blot of cyclin E, Cdk4, cyclin D1 and p27KIP1 in WI-38 cells. The note with it: WI-38, 20 h. The protocol:
Western blotting analysis. Cells in 6-well culture dish were washed in cold PBS and lysed in sample buffer (50 mM Tris-Cl, pH 6.8, 2% SDS, 10% glycerol, 0.1% bromophenol blue and 100 mM DTT). Whole cell lysates were heated at 100° C. for 10 minutes prior to electrophoresis. Separation of complex protein mixtures was achieved using a discontinuous polyacrylamide gel electrophoresis system consisting of a stacking gel and a 10% separating gel. Electrophoresis was performed with 1× running buffer (25 mM Tris pH 8.6, 0.19 M glycine, 0.1% SDS) in a mini vertical electrophoresis apparatus (BIO-RAD) at constant voltage (80 V). Separated proteins were transferred to nitrocellulose membrane (Immobilon™-P, Millipore) by electro-blotting (30V overnight at 4° C.) in transfer buffer (50 mM Tris, 384 mM glycine, 20% methanol, 0.01% SDS). Following blocking (1×PBS, 0.5% Tween 20, 4% [w/v] non-fat milk), target proteins were detected using a 1:2,500 dilution of specific primary antibodies. Anti-mouse or anti-rabbit IgG antibodies conjugated with horseradish peroxidase (Santa Cruz) were used to visualize immunoreactive proteins at 1:2,500 dilutions using enhanced chemiluminescence (Pierce).
FIG. 14: (A) E-Br1 or E-Br2 attenuates mitogen-stimulated CCNE gene induction. Sub-confluent WI-38 cells were serum-starved for 72 h. Following DNA enzyme transfection, the cultures were re-stimulated with serum and allowed to proliferate. After 20 h, cells were harvested and total RNA extracted for semi-quantitative RT-PCR to assess CCNE expression. β-actin was included as an internal control. PCR products were resolved by agarose gel electrophoresis and ethidium bromide-stained DNA bands were visualized under UV. […] Sub-confluent WI-38 cells were serum-starved for 72 h. Following transfection with DNA enzyme, the cultures were allowed to proliferate. After 20 h, cells were harvested for western blot (WB) analysis of cyclin E, Cdk4, cyclin D1 and p27^KIP1 expression. Coomassie-stained protein was included as control for normalization.

Turning to “ERQIKIWFQNRRMKWKKGLDEDGLLLFCEGDTIAD (Peptide containing penetratin sequence from Drosophila and random peptide sequence) [*SCR, reference compound]”, the “DNA synthesis activity (BrdU incorporation)” value (from here on “DNA synthesis activity”) in the series on U2OS cells was “basal DNA synthesis rate similar to that of the vehicle-treated control cells”.
Turning to “ERQIKIWFQNRRMKWKKTGFLTDLTLDDILFADID (ERQIKIWFQNRRMKWKKTGFLTDLTLDDILFADID-NH2) [*Br2]”, in the series on U2OS cells, the “DNA synthesis activity” value is recorded as “substantially reduced DNA synthesis activity” and the “ability to incorporate BrdU with increasing concentrations” value is listed as “progressively reduced ability to incorporate BrdU”. In addition, in the series on cyclins A, D and E, the “cyclin E protein level” value is reported as “dose-dependent accumulation of cyclin E protein”; the “protein levels of cyclin D1 and cyclin A2” value was “without affecting the protein levels”. In addition, the “expression level of Fbxw7 mRNA” value in the series with Fbxw7 mRNA is given as “down-regulated the expression level of Fbxw7 in a dose-dependent fashion”.
For the substance “5′-T TACCCAACAGGCTAGCTACAACGAATATCACA-3′ (DNA TTACCCAACAGGCTAGCTACAACGAATATCACA; DNA, 3' [invdT], backbone not given here) [E-Br2]”, the “serum-induced CCNE gene activation” value with CCNE gene is recorded as “suppressed”. In series [1], the “expression of Cdk4, cyclin D1 and p27^KIP1” value is recorded as “without altering the expression”; the “mitogen-induced cyclin E protein expression” value is reported as “prevents mitogen-induced cyclin E expression”.
As to “ERQIKIWFQNRRMKWKKATGCLLDDGLEGLFEDID (ERQIKIWFQNRRMKWKKATGCLLDDGLEGLFEDID-NH2) [*Br1]”, in the series on U2OS cells, the “DNA synthesis activity” value was “substantially reduced DNA synthesis activity” and the “ability to incorporate BrdU with increasing concentrations” value is “progressively reduced ability to incorporate BrdU”. In the series with cyclins A, D and E, the “cyclin E protein level” value is listed as “dose-dependent accumulation of cyclin E protein”; the “protein levels of cyclin D1 and cyclin A2” value is given as “without affecting the protein levels”. Moreover, the “expression level of Fbxw7 mRNA” value with Fbxw7 mRNA is given as “down-regulated the expression level of Fbxw7 in a dose-dependent fashion”.
For “5′-T TGCTCAGCAGGCTAGCTACAACGACTTGCTCA-3′ (DNA TTGCTCAGCAGGCTAGCTACAACGACTTGCTCA; DNA, 3' [invdT], backbone not given here) [E-Br1]”, the “serum-induced CCNE gene activation” value in the series on CCNE gene is given as “suppressed”. In series [1], the “expression of Cdk4, cyclin D1 and p27^KIP1” value is “without altering the expression”; the “mitogen-induced cyclin E protein expression” value is on record as “prevents mitogen-induced cyclin E expression”.
